Reference: PMC8698791, “Identification, Synthesis, Conformation and Activity of an Insulin-like Peptide from a Sea Anemone” (Biomolecules, 2021)
Positions of bridges follow the written chain, without caps; N, C: chain ends. Chains are numbered I, II in the order given. No end group written: not given here.

What was measured:
[1] = molecular target: T1, human insulin receptor isoform B (IR-B) (Homo sapiens, UniProt P06213); assay: Competition binding assay with europium-labelled insulin on solubilized, immunocaptured IR-B; details: even at 10^−5 M concentration; 16 h at 4 °C, n ≥ 3
T1 construct: expressed in transfected cells; host or cells: IR-B cells (IGF-IR null mouse fibroblasts overexpressing human IR-B)
T1 sequence (P06213 28-758 limits assumed): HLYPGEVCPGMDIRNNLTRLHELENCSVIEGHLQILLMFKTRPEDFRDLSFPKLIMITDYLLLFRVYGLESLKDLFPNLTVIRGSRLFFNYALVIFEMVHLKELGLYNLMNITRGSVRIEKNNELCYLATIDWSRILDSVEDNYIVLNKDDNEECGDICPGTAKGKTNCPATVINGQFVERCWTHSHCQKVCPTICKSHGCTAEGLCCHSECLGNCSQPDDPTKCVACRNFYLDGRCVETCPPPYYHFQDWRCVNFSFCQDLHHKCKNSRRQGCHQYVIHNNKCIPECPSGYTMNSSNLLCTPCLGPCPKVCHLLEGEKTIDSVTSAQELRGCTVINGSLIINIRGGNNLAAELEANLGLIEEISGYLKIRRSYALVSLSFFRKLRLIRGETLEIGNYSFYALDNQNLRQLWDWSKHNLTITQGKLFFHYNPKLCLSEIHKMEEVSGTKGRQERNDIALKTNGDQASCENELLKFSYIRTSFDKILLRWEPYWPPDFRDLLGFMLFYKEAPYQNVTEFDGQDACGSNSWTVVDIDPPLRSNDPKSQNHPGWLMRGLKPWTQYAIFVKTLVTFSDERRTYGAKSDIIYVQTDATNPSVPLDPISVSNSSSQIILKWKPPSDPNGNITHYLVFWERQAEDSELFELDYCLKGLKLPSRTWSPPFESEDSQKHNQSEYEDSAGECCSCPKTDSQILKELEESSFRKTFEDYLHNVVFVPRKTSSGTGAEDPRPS
T1 sequence (P06213 763-1382 partner limits assumed): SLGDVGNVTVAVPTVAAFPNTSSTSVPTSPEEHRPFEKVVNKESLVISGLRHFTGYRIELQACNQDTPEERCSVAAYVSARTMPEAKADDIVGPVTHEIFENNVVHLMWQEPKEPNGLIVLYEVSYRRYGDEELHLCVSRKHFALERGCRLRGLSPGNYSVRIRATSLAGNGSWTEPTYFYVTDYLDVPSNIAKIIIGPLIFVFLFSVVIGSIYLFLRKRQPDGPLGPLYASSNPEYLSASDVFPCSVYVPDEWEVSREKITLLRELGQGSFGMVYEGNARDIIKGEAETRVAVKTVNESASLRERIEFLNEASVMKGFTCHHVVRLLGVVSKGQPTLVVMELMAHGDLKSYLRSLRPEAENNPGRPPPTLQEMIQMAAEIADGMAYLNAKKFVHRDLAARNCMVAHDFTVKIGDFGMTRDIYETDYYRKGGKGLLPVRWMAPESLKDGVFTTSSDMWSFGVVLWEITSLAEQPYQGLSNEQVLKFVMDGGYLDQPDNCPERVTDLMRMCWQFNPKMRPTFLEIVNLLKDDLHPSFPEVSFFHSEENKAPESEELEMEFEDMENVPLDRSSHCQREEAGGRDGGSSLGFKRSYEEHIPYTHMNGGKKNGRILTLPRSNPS
Method: (§1) IGF-IR and IR-B were solubilized from cells using lysis buffer (20 mM HEPES, 150 mM NaCl, 1.5 mM MgCl2, 10% (v/v) glycerol, 1% (v/v) Triton X-100, 1 mM EGTA (pH 7.5)) for 1 h at 4 °C, and lysates were centrifuged for 10 min at 3500 rpm. Solubilized IGF-1R or IR-B (100 µL) was used to coat each well of a white Greiner Lumitrac 600 plate previously coated with 24–31 anti-human IGF-1R antibody or 83-7 anti-human IR antibody. […] Wells were washed three times with 20 mM Tris, 150 mM NaCl, 0.1% (v/v) Tween 20, and then DELFIA enhancement solution (100 µL) was added. Time-resolved fluorescence was measured with 340 nm excitation and 612 nm emission filters using a Victor X4, 2030 Multilabel Reader (Perkin Elmer). All assays were repeated at least 3 times with 3 technical replicates each, except for the IlO1_i1 peptide binding IGF-IR, where 2 assays were conducted. Mean IC50 values were calculated using the statistical software package Prism v9.0.0 (GraphPad Software) after curve fitting with a nonlinear regression (one-site) model.

human IGF-1R = molecular target: T2, human IGF-1R (Homo sapiens, UniProt P08069); assay: Competition binding assay with europium-labelled IGF-I on solubilized, immunocaptured IGF-1R; details: 16 h at 4 °C, n = 2 assays
T2 construct: expressed in transfected cells; host or cells: P6 cells (BALB/c3T3 mouse fibroblasts overexpressing IGF-IR)
T2 sequence (P08069 31-736 limits assumed): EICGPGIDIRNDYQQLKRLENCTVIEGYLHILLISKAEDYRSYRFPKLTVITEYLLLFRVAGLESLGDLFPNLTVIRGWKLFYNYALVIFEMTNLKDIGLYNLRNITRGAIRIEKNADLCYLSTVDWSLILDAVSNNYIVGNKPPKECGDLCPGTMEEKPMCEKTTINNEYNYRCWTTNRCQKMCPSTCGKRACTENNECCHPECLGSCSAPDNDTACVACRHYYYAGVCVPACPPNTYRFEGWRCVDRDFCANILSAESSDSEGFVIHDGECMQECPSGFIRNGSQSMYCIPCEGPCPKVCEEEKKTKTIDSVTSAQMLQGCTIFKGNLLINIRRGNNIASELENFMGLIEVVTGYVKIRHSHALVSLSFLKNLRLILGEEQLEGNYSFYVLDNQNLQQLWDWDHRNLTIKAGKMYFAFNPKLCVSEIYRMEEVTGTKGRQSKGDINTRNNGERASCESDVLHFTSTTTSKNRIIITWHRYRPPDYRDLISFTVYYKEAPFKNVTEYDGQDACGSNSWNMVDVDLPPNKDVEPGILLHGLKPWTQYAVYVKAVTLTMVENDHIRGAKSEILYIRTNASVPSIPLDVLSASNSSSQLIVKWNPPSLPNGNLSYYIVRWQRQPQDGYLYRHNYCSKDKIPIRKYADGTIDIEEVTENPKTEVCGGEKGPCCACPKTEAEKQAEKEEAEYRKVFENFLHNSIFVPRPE
T2 sequence (P08069 741-1367 partner limits assumed): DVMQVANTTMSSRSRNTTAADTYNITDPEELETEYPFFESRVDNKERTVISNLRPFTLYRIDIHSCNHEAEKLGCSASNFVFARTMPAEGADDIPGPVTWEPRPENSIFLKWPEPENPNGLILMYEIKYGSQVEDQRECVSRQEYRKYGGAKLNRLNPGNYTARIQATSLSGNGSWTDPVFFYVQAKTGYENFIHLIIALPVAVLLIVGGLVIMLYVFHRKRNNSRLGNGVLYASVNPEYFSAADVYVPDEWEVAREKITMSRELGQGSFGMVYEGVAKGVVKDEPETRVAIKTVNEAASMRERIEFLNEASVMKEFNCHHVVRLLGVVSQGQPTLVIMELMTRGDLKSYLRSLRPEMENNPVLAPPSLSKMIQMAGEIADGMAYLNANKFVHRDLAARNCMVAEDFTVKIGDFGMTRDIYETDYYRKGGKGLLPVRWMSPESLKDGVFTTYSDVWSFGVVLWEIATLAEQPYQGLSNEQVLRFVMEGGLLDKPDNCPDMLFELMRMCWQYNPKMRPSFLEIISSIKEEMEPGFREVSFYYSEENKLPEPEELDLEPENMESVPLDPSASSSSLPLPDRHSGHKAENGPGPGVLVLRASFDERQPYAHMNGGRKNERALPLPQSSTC
Method: as §1

rKV1.2 = assay: Two-electrode voltage-clamp on Xenopus oocytes expressing KV1.2; type: cell-based, rat; details: 8 µM peptide, Xenopus laevis oocytes, 18–22 °C, n ≥ 3
Text: (§2) For the expression of KV channels (mammalian rKV1.2, hKV1.3, rKV2.1, hKV3.1, rKV4.2, hKV7.2/hKV7.3, hKV10.1, hERG and Shaker IR from the fruit fly Drosophila melanogaster), NaV channels (mammalian rNaV1.2, rNaV1.3, rNaV1.4, hNaV1.5, rNaV1.6, hNaV1.7, BgNaV from the cockroach Blattella germanica, as well as the auxiliary subunits rβ1, hβ1), and the hCaV3.1 channel in Xenopus oocytes, the linearized plasmids were transcribed using the T7 or SP6 mMESSAGE-mMACHINE transcription kit (Ambion, Carlsbad, CA, USA). The harvesting of stage V–VI oocytes from an anaesthetized female Xenopus laevis frog was described previously and was in compliance with the regulations of the European Union (EU) concerning the welfare of laboratory animals as declared in Directive 2010/63/EU. The use of X. laevis oocytes was approved by the Animal Ethics Committee of the KU Leuven with the licence number P186/2019. […]
(§3) Two-electrode voltage-clamp recordings were performed at room temperature (18–22 °C) using a Geneclamp 500 amplifier (Molecular Devices, Downingtown, PA, USA) controlled by a pClamp data acquisition system (Axon Instruments, Union City, CA, USA). Whole cell currents from oocytes were recorded 1–7 days after injection. […]

hKV1.3 = assay: Two-electrode voltage-clamp on Xenopus oocytes expressing KV1.3; type: cell-based, human; details: 8 µM peptide, Xenopus laevis oocytes, 18–22 °C, n ≥ 3
Text: as §2, §3

hKV3.1 = assay: Two-electrode voltage-clamp on Xenopus oocytes expressing KV3.1; type: cell-based, human; details: 8 µM peptide, Xenopus laevis oocytes, 18–22 °C, n ≥ 3
Text: as §2, §3

KV11.1 (hERG) = assay: Two-electrode voltage-clamp on Xenopus oocytes expressing KV11.1 (hERG); type: cell-based; details: human, Xenopus laevis oocytes expressing KV11.1 (hERG), pH 7.4, 8 µM peptide, 18–22 °C, n ≥ 3, read-out: Inhibitory activity on KV11.1 (hERG) current
Text: as §2, §3

rNaV1.4 = assay: Two-electrode voltage-clamp on Xenopus oocytes expressing NaV1.4; type: cell-based, rat; details: 8 µM peptide, Xenopus laevis oocytes, 18–22 °C, n ≥ 3
Text: as §2, §3

I: INESPQTNIDYRICGDQITQKYTELCGNPAAG / II: TDIVEECCAEGCKAEEVKEYCI (disulfide I:14-II:8, I:26-II:21, II:7-II:12) [IlO1_i1]
Ability to compete with europium-labelled insulin bound to IR-B [1]: unable to compete | Ability to compete with europium-labelled IGF-I binding to the IGF-1R (human IGF-1R): did not compete | Inhibitory activity on KV1.2 current (rKV1.2): 3.6 ± 1.9% | Inhibitory activity on KV1.3 current (hKV1.3): 11.9 ± 0.9% | Inhibitory activity on KV3.1 current (hKV3.1): 12.7 ± 2.6% | inhibition at 8 µM (KV11.1 (hERG)): 30.5 ± 1.6% | Inhibitory activity on NaV 1.4 current (rNaV1.4): 14.2 ± 2.2%
